In US4497801A, “New peptides, process for preparation thereof and use thereof” (Fujisawa Pharmaceutical Co., Ltd., priority 1982, dated 1985):
Where a SMILES comes first, the peptide text is derived from it. [ ]: non-standard residue; d: D form. pGlu = O=C1CC[C@@H](C(=O)O)N1

Key:
Format in all cases: in vivo, ICR strain mice
[1] = tested on: Herpes simplex virus type 1 Miyama strain; experiment: Test 6: protective effect against virus infection; conditions: 0.01 mg/kg i.p. 8, 7, 4, 3 and 2 days before i.p. HSV-1 infection; mice observed 14 days
Method: (§1) Test animals: ICR strain mice, males, 4 weeks old, 10 to 20 animals per group.
(6) Test 6 (protective effect against virus infection)
Test animals: Same as Test 5.
Administration schedule: Each peptide of this invention in aqueous solution was intraperitoneally administered 8, 7, 4, 3 and 2 days before infection (0.01 mg/kg).
(§2) Method of virus infection: Herpes simplex virus type 1 Miyama strain (concentration: 2×10^3 pfu/ml) was suspended in sterile physiological saline and 0.2 ml of the suspension was intraperitoneally inoculated.

Escherichia coli No. 22 [2] = experiment: Test 1: protective effect against bacterial infection (i.p. 7, 6, 3, 2 and 1 day before infection); conditions: mice observed 4 days
Method: (1) Test 1 (protective effect against bacterial infection)
as §1
(§3) Administration schedule: The peptides of this invention in predetermined concentrations (aqueous solutions) were intraperitoneally administered 7, 6, 3, 2 and 1 day before infection.
(§4) Method of bacterial infection: Escherichia coli No. 22, cultured at 37° C. for 20 hours (concentration: 2.0×10^8 cfu/ml), was suspended in sterile physiological saline and the test mice were intraperitoneally inoculated with 0.5 ml of the suspension.

Escherichia coli No. 22 [3] = experiment: Test 2: protective effect against bacterial infection (i.p. 6, 5, 4 and 1 day before infection); conditions: mice observed 4 days
Method: as §1, §4
(2) Test 2 (protective effect against bacterial infection)
(§5) Test animals: Same as Test 1.
Administration schedule: Each peptide of this invention in predetermined concentrations (aqueous solutions) was intraperitoneally administered 6, 5, 4 and 1 day before infection.
(§6) Method of bacterial infection: Same as Test 1.

Escherichia coli No. 22 [4] = experiment: Test 3: protective effect against bacterial infection (i.p. 8, 7, 4, 3 and 2 days before infection); conditions: mice observed 4 days
Method: as §1, §4
(3) Test 3 (protective effect against bacterial infection)
Test animals: Same as Test 1
(§7) Administration schedule: Each peptide of this invention in predetermined concentrations (aqueous solutions) was intraperitoneally administered 8, 7, 4, 3 and 2 days before infection.
as §6

[5] = tested on: Herpes simplex virus type 1 Miyama strain; experiment: Test 4: protective effect against virus infection; conditions: mice observed 14 days
Excerpt: as §1
(4) Test 4 (protective effect against virus infection)
as §5, §7, §2

Escherichia coli No. 22 [6] = experiment: Test 5: protective effect against bacterial infection (i.p. 7, 6, 3, 2 and 1 day before infection); conditions: mice observed 4 days
Method: (5) Test 5 (protective effect against bacterial infection)
as §1, §3, §4

[7] = 0.01 mg/kg i.p. 7, 6, 3, 2 and 1 day before i.p. E. coli infection
[8] = 0.1 mg/kg i.p. 7, 6, 3, 2 and 1 day before i.p. E. coli infection
[9] = 1.0 mg/kg i.p. 7, 6, 3, 2 and 1 day before i.p. E. coli infection
[10] = 1 mg/kg i.p. 6, 5, 4 and 1 day before i.p. E. coli infection
[11] = 0.01 mg/kg i.p. 8, 7, 4, 3 and 2 days before i.p. E. coli infection
[12] = 0.1 mg/kg i.p. 8, 7, 4, 3 and 2 days before i.p. E. coli infection
[13] = 1.0 mg/kg i.p. 8, 7, 4, 3 and 2 days before i.p. E. coli infection

Compound | Survival rate (%) (Escherichia coli No. 22 [4]; [11]) | Survival rate (%) (Escherichia coli No. 22 [4]; [12]) | Survival rate (%) (Escherichia coli No. 22 [4]; [13]) | further results
C[C@H](NC(=O)[C@H](CCCCN)NC(=O)[C@@H]1CCC(=O)N1)C(=O)N[C@@H](CCCCN)C(=O)N[C@@H](CCCCN)C(=O)N[C@@H](CCC(N)=O)C(=O)NCC(=O)NCC(=O)N[C@@H](CO)C(=O)N[C@@H](CC(N)=O)C(=O)O [Example 16-(4), pGlu-Lys-Ala-Lys-Lys-Gln-Gly-Gly-Ser-Asn-OH] ([pGlu]KAKKQGGSN-OH) |  |  |  | Survival rate (%) [1]: 85%
C[C@H](NC(=O)[C@@H]1CCC(=O)N1)C(=O)N[C@@H](CCCCN)C(=O)N[C@@H](CCCCN)C(=O)N[C@@H](CCC(N)=O)C(=O)NCC(=O)NCC(=O)N[C@@H](CO)C(=O)N[C@@H](CC(N)=O)C(=O)O [Example 17-(2), pGlu-Ala-Lys-Lys-Gln-Gly-Gly-Ser-Asn-OH] ([pGlu]AKKQGGSN-OH) |  |  |  | Survival rate (%) [1]: 90%
H-DLKEKKEVVEE-OH [Example 6-(2), H-Asp-Leu-Lys-Glu-Lys-Lys-Glu-Val-Val-Glu-Glu-OH] |  |  |  | Survival rate (%) (Escherichia coli No. 22 [2]; [7]): 70%; Survival rate (%) (Escherichia coli No. 22 [2]; [8]): 40%; Survival rate (%) (Escherichia coli No. 22 [2]; [9]): 60%
H-EKLKSELVAN-OH [Example 4-(2), H-Glu-Lys-Leu-Lys-Ser-Glu-Leu-Val-Ala-Asn-OH] |  |  |  | Survival rate (%) (Escherichia coli No. 22 [3]; [10]): 50%
H-EQEKQ-OH [Example 11-(2), H-Glu-Gln-Glu-Lys-Gln-OH] | 70 | 50 | 70 | 
H-KEKKE-OH [Example 14-(2), H-Lys-Glu-Lys-Lys-Glu-OH] | 50 | 50 | 70 | 
H-KETIEQEKQ-OH [Example 12-(2), H-Lys-Glu-Thr-Ile-Glu-Gln-Glu-Lys-Gln-OH] | 70 | 50 | 50 | 
H-KFDKSKLKKTETQE-OH [Example 10-(2), H-Lys-Phe-Asp-Lys-Ser-Lys-Leu-Lys-Lys-Thr-Glu-Thr-Gln-Glu-OH] | 50 | 60 | 70 | 
H-KLKSE-OH [Example 15-(2), H-Lys-Leu-Lys-Ser-Glu-OH] | 80 | 100 | 80 | 
H-KSKLKKTETQE-OH [Example 9-(2), H-Lys-Ser-Lys-Leu-Lys-Lys-Thr-Glu-Thr-Gln-Glu-OH] | 70 | 70 | 70 | 
H-NVKAKIQDKEG-OH [Example 8-(2), H-Asn-Val-Lys-Ala-Lys-Ile-Gln-Asp-Lys-Glu-Gly-OH] | 80 | 60 | 90 | 
H-SKLKSNSTHQ-OH [Example 1-(2), H-Ser-Lys-Leu-Lys-Ser-Asn-Ser-Thr-His-Gln-OH] |  |  |  | Survival rate (%) (Escherichia coli No. 22 [3]; 0.1 mg/kg i.p. 6, 5, 4 and 1 day before i.p. E. coli infection): 40%; Survival rate (%) (Escherichia coli No. 22 [3]; [10]): 40%; Survival rate (%) ([5]; 0.01 mg/kg i.p. 8, 7, 4, 3 and 2 days before i.p. HSV-1 infection): 80%; Survival rate (%) ([5]; 0.1 mg/kg i.p. 8, 7, 4, 3 and 2 days before i.p. HSV-1 infection): 40%; Survival rate (%) ([5]; 1 mg/kg i.p. 8, 7, 4, 3 and 2 days before i.p. HSV-1 infection): 60%
H-TKDLKEKKEVVEE-OH [Example 7-(2), H-Thr-Lys-Asp-Leu-Lys-Glu-Lys-Lys-Glu-Val-Val-Glu-Glu-OH] |  |  |  | Survival rate (%) (Escherichia coli No. 22 [2]; [7]): 50%; Survival rate (%) (Escherichia coli No. 22 [2]; [8]): 70%; Survival rate (%) (Escherichia coli No. 22 [2]; [9]): 40%
H-TKEKLKSELVAN-OH [Example 5-(2), H-Thr-Lys-Glu-Lys-Leu-Lys-Ser-Glu-Leu-Val-Ala-Asn-OH] |  |  |  | Survival rate (%) (Escherichia coli No. 22 [3]; [10]): 50%
pGlu-Lys-Ala-Lys-Ser-Gln-Gly-Gly-Ser-Asn-OH ([pGlu]KAKSQGGSN-OH; SMILES C[C@H](NC(=O)[C@H](CCCCN)NC(=O)[C@@H]1CCC(=O)N1)C(=O)N[C@@H](CCCCN)C(=O)N[C@@H](CO)C(=O)N[C@@H](CCC(N)=O)C(=O)NCC(=O)NCC(=O)N[C@@H](CO)C(=O)N[C@@H](CC(N)=O)C(=O)O) [Example 18-(2)] |  |  |  | Survival rate (%) (Escherichia coli No. 22 [6]; [7]): 60%; Survival rate (%) (Escherichia coli No. 22 [6]; [8]): 70%; Survival rate (%) (Escherichia coli No. 22 [6]; [9]): 80%
